Experimental data: PMC12595434, “Development of retinoid nuclear receptor pathway antagonists through targeting aldehyde dehydrogenase 1A3” (iScience, 2025)
Values joined by “and” are separate entries in the source; they are usually repeats but may differ in a detail not shown here. Identical values can stand only once.

Tests used:
ROBO1 = target: T1, ROBO1 (Homo sapiens, UniProt Q9Y6N7); experiment: Thermal proteome profiling (TPP) in A375 cells; format: cell-based; settings: ROBO1, 100 nM
T1 construct: Treated A375 cells were harvested from 10 × 15 cm plates; endogenous in cells; host or cells: A375 melanoma cells

HEK293 cells = experiment: Metabolomic profiling of treated cell lines (raw metabolite counts); format: cell-based; settings: HEK293_Inhibitor, replicates A-C
Description: Supplement mmc8.xlsx, sheet "Supplement Table 7" | column: HEK293_Inhibitor_A; HEK293_Inhibitor_B; HEK293_Inhibitor_C

GR = GR (Homo sapiens, UniProt P04150); experiment: Off-target profiling panel; format: binding; settings: read-out: Inhibition by MBE1 at 10 μM (%)
D2 = D2 (Homo sapiens, UniProt P14416); experiment: Off-target profiling panel; format: binding; settings: read-out: Inhibition by MBE1 at 10 μM (%)
LN229 cells = experiment: Metabolomic profiling of treated cell lines (raw metabolite counts); format: cell-based, human; settings: LN229:MBE, replicates
Description: Supplement mmc8.xlsx, sheet "Supplement Table 7" | column: LN229:MBE

[1] = target: T2, ALDH1A3 in MCF7 or SUM159-M1a-ALDH1A3 knockout cells (Homo sapiens, UniProt P47895); experiment: Aldefluor dose titration, cells with ectopic ALDH1A3; format: cell-based
T2 construct: expressed in transfected cells; host or cells: MCF7 wild-type; SUM159-M1a-ALDH1A3 knockout
Description: Next, we developed three orthogonal methods to assess MBE1.5 selectivity and potency in cellular assays, as these cellular assays provide a more physiologically relevant method to assess target engagement and specificity. […] We confirmed expression of each enzyme and then performed a dose titration of the Aldefluor assay in each cell derivative with MBE1.5. […] Therefore, we performed thermal proteome profiling (TPP) on A375 melanoma cells exposed to DMSO, 100 nM MBE1, and 1 μM MBE1. […] These two doses would be expected to saturate ALDH1A3 binding based on the biochemical affinity while the high dose may be expected to identify potential MBE1 off-targets. […] We next assessed for melting point changes in the dataset using a 1.5°C cutoff and p < 0.05; 112 proteins were identified in the comparison between 100 nM MBE1 and DMSO, including ALDH1A3. […] Finally, we validated that MBE1.5 blocked the physiological function of ALDH1A3 by testing a dose titration of MBE1.5 in the retinoid inhibition assay using MCF7-ALDH1A3 cell-based readout.
In addition, cells were suspended at a concentration of 100,000 cells per mL. […] Cells were analyzed by a BD LSRII for flow cytometry and were sorted using a FACSAria Fusion cell sorter (BD Biosciences) equipped with a 70 micron nozzle. […]

T1 sequence (Q9Y6N7 26-1651): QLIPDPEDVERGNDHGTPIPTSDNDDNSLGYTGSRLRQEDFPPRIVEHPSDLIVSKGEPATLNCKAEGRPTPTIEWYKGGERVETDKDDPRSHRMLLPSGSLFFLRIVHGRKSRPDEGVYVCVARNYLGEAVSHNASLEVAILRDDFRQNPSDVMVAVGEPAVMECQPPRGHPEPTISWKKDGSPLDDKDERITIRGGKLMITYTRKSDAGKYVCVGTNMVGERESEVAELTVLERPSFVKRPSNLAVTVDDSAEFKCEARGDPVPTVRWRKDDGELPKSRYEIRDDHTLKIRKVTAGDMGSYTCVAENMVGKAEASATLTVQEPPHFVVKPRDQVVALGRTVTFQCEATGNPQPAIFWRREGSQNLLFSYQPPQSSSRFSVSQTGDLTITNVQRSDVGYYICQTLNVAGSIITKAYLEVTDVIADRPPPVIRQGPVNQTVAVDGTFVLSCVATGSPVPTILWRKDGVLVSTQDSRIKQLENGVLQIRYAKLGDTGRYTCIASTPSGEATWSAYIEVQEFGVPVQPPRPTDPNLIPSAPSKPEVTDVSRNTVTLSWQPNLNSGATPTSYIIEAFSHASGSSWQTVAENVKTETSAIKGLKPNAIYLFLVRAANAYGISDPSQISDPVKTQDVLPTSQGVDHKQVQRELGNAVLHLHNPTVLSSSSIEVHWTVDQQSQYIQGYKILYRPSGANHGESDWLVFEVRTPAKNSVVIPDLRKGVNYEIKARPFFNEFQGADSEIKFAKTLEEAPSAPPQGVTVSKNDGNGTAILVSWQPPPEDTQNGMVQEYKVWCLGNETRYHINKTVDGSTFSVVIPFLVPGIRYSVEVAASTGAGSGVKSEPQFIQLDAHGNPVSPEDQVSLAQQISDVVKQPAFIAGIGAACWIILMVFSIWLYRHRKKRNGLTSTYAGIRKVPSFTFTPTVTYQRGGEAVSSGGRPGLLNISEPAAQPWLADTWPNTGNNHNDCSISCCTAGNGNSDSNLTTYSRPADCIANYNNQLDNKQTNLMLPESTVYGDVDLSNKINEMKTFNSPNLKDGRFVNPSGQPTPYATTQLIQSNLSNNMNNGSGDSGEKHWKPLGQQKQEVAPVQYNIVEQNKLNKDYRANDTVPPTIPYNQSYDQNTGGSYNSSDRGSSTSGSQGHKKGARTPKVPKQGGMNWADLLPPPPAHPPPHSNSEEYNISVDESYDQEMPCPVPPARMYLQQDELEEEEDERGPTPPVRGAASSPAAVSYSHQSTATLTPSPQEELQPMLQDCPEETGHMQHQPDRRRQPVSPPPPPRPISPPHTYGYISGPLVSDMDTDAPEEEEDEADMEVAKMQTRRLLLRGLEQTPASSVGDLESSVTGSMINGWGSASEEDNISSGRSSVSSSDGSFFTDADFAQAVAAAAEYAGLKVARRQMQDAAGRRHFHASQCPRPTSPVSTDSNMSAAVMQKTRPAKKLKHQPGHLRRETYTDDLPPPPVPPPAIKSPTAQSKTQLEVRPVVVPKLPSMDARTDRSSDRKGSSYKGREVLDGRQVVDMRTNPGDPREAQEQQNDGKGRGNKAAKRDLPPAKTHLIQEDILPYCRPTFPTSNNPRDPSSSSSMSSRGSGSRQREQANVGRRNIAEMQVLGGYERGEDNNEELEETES
Chain of D2 (P14416 whole entry): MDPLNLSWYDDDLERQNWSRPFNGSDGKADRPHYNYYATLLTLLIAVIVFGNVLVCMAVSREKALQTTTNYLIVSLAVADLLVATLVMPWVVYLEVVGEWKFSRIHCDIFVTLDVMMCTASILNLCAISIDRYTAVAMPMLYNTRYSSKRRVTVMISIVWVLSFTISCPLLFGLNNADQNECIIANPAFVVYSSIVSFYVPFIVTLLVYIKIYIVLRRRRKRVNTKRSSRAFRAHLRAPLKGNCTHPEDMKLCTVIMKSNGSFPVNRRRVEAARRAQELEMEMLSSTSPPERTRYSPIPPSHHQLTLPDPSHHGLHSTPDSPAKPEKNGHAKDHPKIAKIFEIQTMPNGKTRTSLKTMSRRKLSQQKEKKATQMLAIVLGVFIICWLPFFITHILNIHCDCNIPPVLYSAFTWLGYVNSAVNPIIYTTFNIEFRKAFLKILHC
T2 sequence (P47895 whole entry): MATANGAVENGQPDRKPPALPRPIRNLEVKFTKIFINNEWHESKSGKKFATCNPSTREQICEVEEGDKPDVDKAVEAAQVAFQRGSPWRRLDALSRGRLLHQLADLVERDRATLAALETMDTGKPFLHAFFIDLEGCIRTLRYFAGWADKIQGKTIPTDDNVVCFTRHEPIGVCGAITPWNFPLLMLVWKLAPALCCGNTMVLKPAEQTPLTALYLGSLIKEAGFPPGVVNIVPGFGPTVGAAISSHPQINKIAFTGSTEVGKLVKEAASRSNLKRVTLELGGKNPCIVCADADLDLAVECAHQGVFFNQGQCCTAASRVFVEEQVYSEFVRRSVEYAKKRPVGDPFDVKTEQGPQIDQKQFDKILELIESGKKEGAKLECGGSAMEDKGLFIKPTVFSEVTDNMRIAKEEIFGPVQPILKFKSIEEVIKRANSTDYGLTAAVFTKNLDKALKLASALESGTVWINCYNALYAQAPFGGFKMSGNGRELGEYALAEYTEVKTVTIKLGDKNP
Chain of GR (P04150 whole entry): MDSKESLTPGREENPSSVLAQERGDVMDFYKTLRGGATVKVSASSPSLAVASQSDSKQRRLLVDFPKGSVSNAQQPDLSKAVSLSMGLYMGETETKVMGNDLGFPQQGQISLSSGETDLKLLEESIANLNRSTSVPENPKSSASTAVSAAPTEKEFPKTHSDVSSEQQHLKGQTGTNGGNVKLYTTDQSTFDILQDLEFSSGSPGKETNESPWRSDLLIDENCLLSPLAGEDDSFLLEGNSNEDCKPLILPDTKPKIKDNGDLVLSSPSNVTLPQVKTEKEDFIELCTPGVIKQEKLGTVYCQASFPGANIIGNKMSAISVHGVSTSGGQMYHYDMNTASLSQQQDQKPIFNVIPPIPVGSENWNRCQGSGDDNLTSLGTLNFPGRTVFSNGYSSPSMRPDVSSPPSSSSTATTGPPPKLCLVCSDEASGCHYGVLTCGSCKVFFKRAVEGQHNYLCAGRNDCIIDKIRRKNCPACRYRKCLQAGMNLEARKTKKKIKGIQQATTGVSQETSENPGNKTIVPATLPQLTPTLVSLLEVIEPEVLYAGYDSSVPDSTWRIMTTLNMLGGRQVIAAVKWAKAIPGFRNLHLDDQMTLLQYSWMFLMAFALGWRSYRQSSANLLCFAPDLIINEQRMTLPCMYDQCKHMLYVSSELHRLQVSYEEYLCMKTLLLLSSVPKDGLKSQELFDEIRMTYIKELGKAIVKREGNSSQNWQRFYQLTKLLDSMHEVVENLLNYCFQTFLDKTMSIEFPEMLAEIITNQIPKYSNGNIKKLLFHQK

With `CCc1cnccc1C(=O)Nc1cc2c(cc1F)NC(=O)CC2` [MBE1, 3-ethyl-N-(7-fluoro-2-oxo-3,4-dihydro-1H-quinolin-6-yl)pyridine-4-carboxamide] as the compound, how does the “100nM MBE1 Tm” value (ROBO1) read?
The value was 63.1814.

What about the “DMSO-100nM MBE1 TM” value (ROBO1) of the same compound?
The value was -8.49.

What about the “Raw counts of 2-Hydroxybutyric acid” value (HEK293 cells) of the same compound?
Its value is 460406 and 376147 and 351707.

And the “Raw counts of 3-Hydroxybutyric acid” value (HEK293 cells)?
The value was 2036524 and 1752460 and 1814028.

And the “Raw counts of 3-Phosphoglycerate” value (HEK293 cells)?
Its value is 54741.2 and 47239.6 and 67920.5.

What about the “Raw counts of 3-Phosphoserine” value (HEK293 cells) of the same compound?
Its value is 379486 and 687080 and 597417.

And the “Raw counts of 6-Phosphogluconate” value (HEK293 cells)?
Its value is 18526.1 and 6100.06 and 8926.16.

What about the “Raw counts of Carbamoyl phosphate” value (HEK293 cells) of the same compound?
Its value is 141074 and 139557 and 164484.

What about the “Raw counts of Citrulline” value (HEK293 cells) of the same compound?
The value was 520045 and 463794 and 470630.

And the “Raw counts of Cytidine” value (HEK293 cells)?
Its value is 7575.12 and 7385.3 and 7444.6.

What about the “Raw counts of Hypoxanthine” value (HEK293 cells) of the same compound?
Its value is 234438 and 380137 and 398453.

What about the “Raw counts of Isoleucine” value (HEK293 cells) of the same compound?
The value was 1.16E+08 and 1.15E+08 (2×).

What about the “Raw counts of Lactate” value (HEK293 cells) of the same compound?
Its value is 5.47E+08 and 4.80E+08 and 4.40E+08.

What about the “Raw counts of Leucine” value (HEK293 cells) of the same compound?
Its value is 9.35E+07 and 8.69E+07 and 8.73E+07.

And the “Raw counts of Methionine” value (HEK293 cells)?
Its value is 2.07E+07 and 2.11E+07 and 2.08E+07.

And the “Raw counts of N-acetyl-glutamine” value (HEK293 cells)?
The value was 1122707 and 1247401 and 1071948.

What about the “Raw counts of Orotate” value (HEK293 cells) of the same compound?
The value was 98388.4 and 120085 and 73533.2.

What about the “Raw counts of Phenylalanine” value (HEK293 cells) of the same compound?
Its value is 8.50E+07 and 7.66E+07 and 8.04E+07.

And the “Raw counts of Phosphoenolpyruvate” value (HEK293 cells)?
The value was 10515.5 and 13057.1 and 9934.64.

And the “Raw counts of Pyridoxine” value (HEK293 cells)?
The value was 4.65E+07 and 4.40E+07 and 4.42E+07.

What about the “Raw counts of Pyruvate” value (HEK293 cells) of the same compound?
Its value is 7987114 and 6360434 and 6733166.

What about the “Raw counts of Ribitol” value (HEK293 cells) of the same compound?
Its value is 2730293 and 2993915 and 2689879.

And the “Raw counts of Sorbitol” value (HEK293 cells)?
Its value is 1.69E+07 and 1.55E+07 and 1.59E+07.

And the “Raw counts of Taurine” value (HEK293 cells)?
The value was 2.13E+07 and 2.37E+07 and 2.28E+07.

What about the “Raw counts of Tryptophan” value (HEK293 cells) of the same compound?
Its value is 1.16E+07 and 1.11E+07 and 1.10E+07.

And the “Raw counts of Tyrosine” value (HEK293 cells)?
The value was 4.24E+07 and 4.04E+07 and 3.95E+07.

And the “Raw counts of UDP” value (HEK293 cells)?
Its value is 175249 and 191418 and 196338.

And the “Raw counts of Uracil” value (HEK293 cells)?
Its value is 1015162 and 942022 and 907732.

What about the “Raw counts of Uridine” value (HEK293 cells) of the same compound?
Its value is 82140.1 and 83430.9 and 107857.

And the “Raw counts of Valine” value (HEK293 cells)?
Its value is 7.12E+07 and 6.86E+07 and 6.72E+07.

And the “Raw counts of Xanthine” value (HEK293 cells)?
Its value is 7637154 and 6442670 and 6627934.

What about the inhibition at 10 µM (GR) of the same compound?
Its inhibition at 10 µM is -13.5%.

And the inhibition at 10 µM (D2)?
The inhibition at 10 µM was 1.45%.

And the “Raw counts of 2-Hydroxybutyric acid” value (LN229 cells)?
The value was 261573 and 302862 and 279756.

And the “Raw counts of 3-Hydroxybutyric acid” value (LN229 cells)?
Its value is 1309454 and 1164963 and 1206122.

And the “Raw counts of 3-Phosphoglycerate” value (LN229 cells)?
Its value is 11596.7 and 6745.18 and 3724.31.

And the “Raw counts of 3-Phosphoserine” value (LN229 cells)?
Its value is 6232.78 and 2797.63 and 5215.65.

And the “Raw counts of 6-Phosphogluconate” value (LN229 cells)?
The value was 5157.27 and 5734.83 and 2668.31.

What about the “Raw counts of Carbamoyl phosphate” value (LN229 cells) of the same compound?
Its value is 45195.2 and 38665.3 and 41961.6.

What about the “Raw counts of Citrulline” value (LN229 cells) of the same compound?
Its value is 498544 and 479590 and 504161.

What about the “Raw counts of Cytidine” value (LN229 cells) of the same compound?
The value was 67589.2 and 84265.7 and 71881.1.

And the “Raw counts of Hypoxanthine” value (LN229 cells)?
The value was 1333474 and 1740688 and 1516660.

And the “Raw counts of Isoleucine” value (LN229 cells)?
Its value is 1.29E+08 and 1.33E+08 and 1.18E+08.

What about the “Raw counts of Lactate” value (LN229 cells) of the same compound?
The value was 3.62E+08 and 3.37E+08 and 3.31E+08.

And the “Raw counts of Leucine” value (LN229 cells)?
The value was 1.02E+08 and 1.11E+08 and 1.01E+08.

What about the “Raw counts of Methionine” value (LN229 cells) of the same compound?
The value was 1.89E+07 and 2.12E+07 and 1.99E+07.

And the “Raw counts of N-acetyl-glutamine” value (LN229 cells)?
Its value is 31448.3 and 20555.9 and 36320.3.

What about the “Raw counts of Orotate” value (LN229 cells) of the same compound?
The value was 0.

What about the “Raw counts of Phenylalanine” value (LN229 cells) of the same compound?
Its value is 7.59E+07 and 8.45E+07 and 7.68E+07.

What about the “Raw counts of Phosphoenolpyruvate” value (LN229 cells) of the same compound?
The value was 0 and 2071.2 and 2356.81.

And the “Raw counts of Pyridoxine” value (LN229 cells)?
Its value is 4.91E+07 and 5.30E+07 and 4.89E+07.

What about the “Raw counts of Pyruvate” value (LN229 cells) of the same compound?
The value was 2231037 and 2192759 and 1890595.

What about the “Raw counts of Ribitol” value (LN229 cells) of the same compound?
The value was 1641581 and 2032681 and 3007411.

And the “Raw counts of Sorbitol” value (LN229 cells)?
Its value is 2.02E+07 and 2.14E+07 and 2.12E+07.

What about the “Raw counts of Taurine” value (LN229 cells) of the same compound?
Its value is 1.22E+07 and 1.24E+07 and 1.15E+07.

What about the “Raw counts of Tryptophan” value (LN229 cells) of the same compound?
Its value is 1.21E+07 and 1.27E+07 and 1.15E+07.

And the “Raw counts of Tyrosine” value (LN229 cells)?
Its value is 4.34E+07 and 4.46E+07 and 4.65E+07.

And the “Raw counts of UDP” value (LN229 cells)?
The value was 108325 and 86766.9 and 84670.8.

What about the “Raw counts of Uracil” value (LN229 cells) of the same compound?
The value was 1116835 and 1114912 and 1017401.

What about the “Raw counts of Uridine” value (LN229 cells) of the same compound?
The value was 932418 and 1052824 and 956012.

What about the “Raw counts of Valine” value (LN229 cells) of the same compound?
Its value is 6.74E+07 and 7.26E+07 and 6.71E+07.

What about the “Raw counts of Xanthine” value (LN229 cells) of the same compound?
Its value is 9846835 and 1.10E+07 and 1.04E+07.

`CCc1ccccc1C(=O)Nc1cc2c(cc1F)NC(=O)CC2` [MBE1.5, 2-ethyl-N-(7-fluoro-2-oxo-3,4-dihydro-1H-quinolin-6-yl)benzamide] was tested. Which “inhibition of ALDH1A3 in Aldefluor assay (in words)” value [1] did it give?
The value was “high potency”.
